From patent US20060069132A1, “Azolecarboxamide herbicides” (priority 2004, published 2006)

Columns and labels:
Surinam grass = test: Test B pre-/postemergence herbicide test; assay type: in vivo, Urochloa decumbens
Method in brief: (§1)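 Evaluation is visual, comparing treated with control plants on a scale where 0 means no effect and 100 means full control. Treatments were preemergence, or postemergence on seedlings 2–18 cm tall, and held 13–15 days in the greenhouse.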

pigweed = test: Test B pre-/postemergence herbicide test; assay type: in vivo, Amaranthus retroflexus
Method in brief: as §1

velvetleaf = test: Test B pre-/postemergence herbicide test; assay type: in vivo, Abutilon theophrasti
Method in brief: as §1

ducksalad = test: Test B flooded paddy test; assay type: in vivo, Heteranthera limosa; conditions: 1000 g ai/ha, visual rating, scale 0 to 100 (0 no effect, 100 complete control), 13 to 15 days
Method in brief: (§2)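 Treated at 2-leaf (paddy) or 1–4-leaf, 2–18 cm (postemergence); greenhouse 13–15 d; visual score vs control, 0 none to 100 complete control; dash = not tested.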

large crabgrass = test: Test B pre-/postemergence herbicide test; assay type: in vivo, Digitaria sanguinalis
Method in brief: as §1

blackgrass = test: Test B postemergence herbicide test; assay type: in vivo, Alopecurus myosuroides; conditions: scale 0 (no effect) to 100 (complete control); for Blackgrass plant response rating: 125 g ai/ha; for Plant response rating, Blackgrass: 500 g ai/ha, visual rating after 13 to 15 days
Method in brief: as §2

corn = test: Test B pre-/postemergence herbicide test; assay type: in vivo, Zea mays
Method in brief: as §1

[1] = tested on: small flower umbrella sedge; test: Test B flooded paddy test; assay type: in vivo, Cyperus difformis; conditions: 1000 g ai/ha, visual rating, scale 0 to 100 (0 no effect, 100 complete control), 13 to 15 days
Method in brief: as §2

wheat = test: Test B postemergence herbicide test; assay type: in vivo, Triticum aestivum; parameters: key to Wheat plant response rating: 0 = no effect, 100 = complete control; conditions: scale 0 (no effect) to 100 (complete control); for Plant response rating, Wheat: Postemergence, 500 g ai/ha, visual rating after 13 to 15 days; for Wheat plant response rating: postemergence, 125 g ai/ha, visual rating
Method in brief: (§3)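 Visual ratings, 0 (no effect) to 100 (complete control), made versus controls after 13–15 d greenhouse. Paddy plants treated at 2-leaf stage; postemergence plants at 1- to 4-leaf stage, 2–18 cm tall.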

barnyardgrass = test: Test B flooded paddy test; assay type: in vivo, Echinochloa crus-galli; conditions: 1000 g ai/ha, visual rating, scale 0 to 100 (0 no effect, 100 complete control), 13 to 15 days
Method in brief: as §2

giant foxtail = test: Test B pre-/postemergence herbicide test; assay type: in vivo, Setaria faberi
Method in brief: as §1

morningglory = test: Test B pre-/postemergence herbicide test; assay type: in vivo, Ipomoea coccinea
Method in brief: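 Herbicidal effect was judged by eye on a 0–100 scale after plants stood 13 to 15 days in the greenhouse following pre- or postemergence treatment with surfactant-containing formulations.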

rice = test: Test B flooded paddy test; assay type: in vivo, Oryza sativa; conditions: 1000 g ai/ha, visual rating, scale 0 to 100 (0 no effect, 100 complete control), 13 to 15 days
Method in brief: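 Each value is a visual 0–100 response rating taken against controls 13 to 15 days after treatment in the greenhouse. Plants received formulated chemical postemergence at the 1- to 4-leaf stage or, in flooded paddy, at the 2-leaf stage.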

lambsquarters = test: Test B pre-/postemergence herbicide test; assay type: in vivo, Chenopodium album
Method in brief: as §1

wild oat = test: Test B postemergence herbicide test; assay type: in vivo, Avena fatua; conditions: scale 0 (no effect) to 100 (complete control); for Oat, Wild plant response rating: 125 g ai/ha; for Plant response rating, Oat, Wild: 500 g ai/ha, visual rating after 13 to 15 days
Method in brief: as §3

[2] = Postemergence, 500 g ai/ha, visual rating after 13 to 15 days, scale 0 (no effect) to 100 (complete control)
[3] = Preemergence, 500 g ai/ha, scale 0 to 100
[4] = preemergence, 125 g ai/ha, 0 to 100 scale, 0 is no effect, 100 is complete control
[5] = Postemergence, 125 g ai/ha, scale 0 (no effect) to 100 (complete control)
[6] = postemergence, 125 g ai/ha, visual rating, scale 0 (no effect) to 100 (complete control)

## CCn1nc(C(C)(C)C)cc1C(=O)Nc1cccc(C(=O)NCCF)c1 [Compound 45]
Surinam grass; [2]
  Plant response rating, Surinam Grass: 30
Surinam grass; [3]
  Surinam Grass plant response rating: 50
Surinam grass; [4]
  Plant response rating, Surinam Grass: 20
pigweed; [2]
  Plant response rating, Pigweed: 100
pigweed; [3]
  Pigweed plant response rating: 100
pigweed; [4]
  Plant response rating, Pigweed: 100
velvetleaf; [2]
  Plant response rating, Velvetleaf: 70
velvetleaf; [3]
  Velvetleaf plant response rating: 100
velvetleaf; [4]
  Plant response rating, Velvetleaf: 20
ducksalad
  Ducksalad plant response rating: 80
Large crabgrass; [5]
  Crabgrass, Large plant response rating: 30
Large crabgrass; [2]
  Plant response rating, Crabgrass, Large: 30
Large crabgrass; [3]
  Crabgrass, Large plant response rating: 90
blackgrass; Postemergence
  Blackgrass plant response rating: 10
  Plant response rating, Blackgrass: 20
corn; [5]
  Corn plant response rating: 20
corn; [2]
  Plant response rating, Corn: 30
corn; [3]
  Corn plant response rating: 30
[1]
  Sedge, Umbrella plant response rating: 70
wheat
  Plant response rating, Wheat: 30
barnyardgrass
  Barnyardgrass plant response rating: 80
Giant foxtail; [5]
  Foxtail, Giant plant response rating: 20
Giant foxtail; [2]
  Plant response rating, Foxtail, Giant: 30
Giant foxtail; [3]
  Foxtail, Giant plant response rating: 100
Giant foxtail; [4]
  Plant response rating, Foxtail, Giant: 10
morningglory; [5]
  Morningglory plant response rating: 40
morningglory; [2]
  Plant response rating, Morningglory: 90
morningglory; [3]
  Morningglory plant response rating: 30
morningglory; [4]
  Plant response rating, Morningglory: 10
rice
  Rice plant response rating: 70
lambsquarters; [5]
  Lambsquarters plant response rating: 80
lambsquarters; [2]
  Plant response rating, Lambsquarters: 90
lambsquarters; [3]
  Lambsquarters plant response rating: 100
lambsquarters; [4]
  Plant response rating, Lambsquarters: 100
Wild oat; Postemergence
  Oat, Wild plant response rating: 0
  Plant response rating, Oat, Wild: 20

## CCn1nc(C(C)(C)C)cc1C(=O)Nc1cccc(C(=O)NC(C)C)c1 [Compound 51]
Surinam grass; [2]
  Plant response rating, Surinam Grass: 20
Surinam grass; [3]
  Surinam Grass plant response rating: 80
Surinam grass; [6]
  Surinam Grass plant response rating: 10
Surinam grass; [4]
  Plant response rating, Surinam Grass: 30
pigweed; [2]
  Plant response rating, Pigweed: 100
pigweed; [3]
  Pigweed plant response rating: 100
pigweed; [6]
  Pigweed plant response rating: 80
pigweed; [4]
  Plant response rating, Pigweed: 100
velvetleaf; [2]
  Plant response rating, Velvetleaf: 70
velvetleaf; [3]
  Velvetleaf plant response rating: 100
velvetleaf; [6]
  Velvetleaf plant response rating: 60
velvetleaf; [4]
  Plant response rating, Velvetleaf: 50
ducksalad
  Ducksalad plant response rating: 80
Large crabgrass; [2]
  Plant response rating, Crabgrass, Large: 50
Large crabgrass; [3]
  Crabgrass, Large plant response rating: 100
Large crabgrass; [6]
  Crabgrass, Large plant response rating: 20
Large crabgrass; [4]
  Plant response rating, Crabgrass, Large: 90
blackgrass; Postemergence
  Plant response rating, Blackgrass: 0
blackgrass; postemergence, visual rating
  Blackgrass plant response rating: 0
corn; [2]
  Plant response rating, Corn: 0
corn; [3]
  Corn plant response rating: 50
corn; [6]
  Corn plant response rating: 0
corn; [4]
  Plant response rating, Corn: 0
[1]
  Sedge, Umbrella plant response rating: 80
wheat
  Plant response rating, Wheat: 20
  Wheat plant response rating: 20
barnyardgrass
  Barnyardgrass plant response rating: 90
Giant foxtail; [2]
  Plant response rating, Foxtail, Giant: 0
Giant foxtail; [3]
  Foxtail, Giant plant response rating: 100
Giant foxtail; [6]
  Foxtail, Giant plant response rating: 0
Giant foxtail; [4]
  Plant response rating, Foxtail, Giant: 100
morningglory; [2]
  Plant response rating, Morningglory: 0
morningglory; [3]
  Morningglory plant response rating: 0
morningglory; [6]
  Morningglory plant response rating: 0
morningglory; [4]
  Plant response rating, Morningglory: 0
rice
  Rice plant response rating: 70
lambsquarters; [2]
  Plant response rating, Lambsquarters: 90
lambsquarters; [3]
  Lambsquarters plant response rating: 100
lambsquarters; [6]
  Lambsquarters plant response rating: 80
lambsquarters; [4]
  Plant response rating, Lambsquarters: 100
Wild oat; Postemergence
  Plant response rating, Oat, Wild: 10
Wild oat; postemergence, visual rating
  Oat, Wild plant response rating: 0

## C=CCn1nc(C(C)(C)C)cc1C(=O)Nc1cccc(C(=O)NCC)c1 [Compound 56]
Surinam grass; [2]
  Plant response rating, Surinam Grass: 30
Surinam grass; [3]
  Surinam Grass plant response rating: 60
Surinam grass; [6]
  Surinam Grass plant response rating: 20
Surinam grass; [4]
  Plant response rating, Surinam Grass: 30
pigweed; [2]
  Plant response rating, Pigweed: 90
pigweed; [3]
  Pigweed plant response rating: 100
pigweed; [6]
  Pigweed plant response rating: 60
pigweed; [4]
  Plant response rating, Pigweed: 30
velvetleaf; [2]
  Plant response rating, Velvetleaf: 50
velvetleaf; [3]
  Velvetleaf plant response rating: 100
velvetleaf; [6]
  Velvetleaf plant response rating: 40
velvetleaf; [4]
  Plant response rating, Velvetleaf: 0
ducksalad
  Ducksalad plant response rating: 80
Large crabgrass; [2]
  Plant response rating, Crabgrass, Large: 20
Large crabgrass; [3]
  Crabgrass, Large plant response rating: 100
Large crabgrass; [6]
  Crabgrass, Large plant response rating: 10
Large crabgrass; [4]
  Plant response rating, Crabgrass, Large: 70
blackgrass; Postemergence
  Plant response rating, Blackgrass: 10
blackgrass; postemergence, visual rating
  Blackgrass plant response rating: 0
corn; [2]
  Plant response rating, Corn: 30
corn; [3]
  Corn plant response rating: 20
corn; [6]
  Corn plant response rating: 20
corn; [4]
  Plant response rating, Corn: 0
[1]
  Sedge, Umbrella plant response rating: 80
wheat
  Plant response rating, Wheat: 20
  Wheat plant response rating: 10
barnyardgrass
  Barnyardgrass plant response rating: 80
Giant foxtail; [2]
  Plant response rating, Foxtail, Giant: 20
Giant foxtail; [3]
  Foxtail, Giant plant response rating: 100
Giant foxtail; [6]
  Foxtail, Giant plant response rating: 20
Giant foxtail; [4]
  Plant response rating, Foxtail, Giant: 60
morningglory; [2]
  Plant response rating, Morningglory: 20
morningglory; [3]
  Morningglory plant response rating: 20
morningglory; [6]
  Morningglory plant response rating: 0
morningglory; [4]
  Plant response rating, Morningglory: 20
rice
  Rice plant response rating: 70
lambsquarters; [2]
  Plant response rating, Lambsquarters: 90
lambsquarters; [3]
  Lambsquarters plant response rating: 100
lambsquarters; [6]
  Lambsquarters plant response rating: 80
lambsquarters; [4]
  Plant response rating, Lambsquarters: 100
Wild oat; Postemergence
  Plant response rating, Oat, Wild: 20
Wild oat; postemergence, visual rating
  Oat, Wild plant response rating: 20
